According to US6355823B1 (Board of Regents, The University of Texas System, priority 1999, dated 2002):
Several values for one entry are separate records, joined by “and”; a condition that tells them apart may be missing. Identical values can stand only once. Like-named read-outs stand apart in the source and are kept apart here.

Assays:
[1] = system: rats with normal renal function; experiment: Second 2-week study of 2′-PP in drinking water (FIG. 10, 11); assay type: in vivo, rat
Description: Serum phosphate again decreased in a 2′-PP concentration-dependent manner immediately after its addition to the rats' drinking water. After 2 weeks on 2′-PP, serum phosphate was reduced to between 1.8 mM on 1 μM 2′-PP and 1.2 mM at 25 μM 2′-PP. […] This decrease in serum calcium may be related to a slight volume expansion. The rats receiving 5 μM or higher concentrations of 2′-PP drank 2-4 times more water than normal for the first 4 days of the study. After the first 4 days, water consumption returned to normal.

[2] = system: rats on a 0.9% phosphorus diet; experiment: Serum phosphate after withdrawal of 2′-PP (in vivo half-life); set-up: species or system rat
Description: Rats on a 0.9% phosphorus diet were given 10 μM [^3H]2′-PP in their water for 2 weeks. Serum phosphate and calcium were determined by spectrophotometric assays. Following the experimental period, 2′-PP was removed from the water, and the stool was examined for radioactivity at days 1, 3, 5 and 8, and serum phosphate was examined.
The apparent half-time to return to normal serum phosphate levels was approximately 3 days. […] During this maturation period, crypt cells express the intestinal brush border membrane Na/phosphate co-transporter.

[3] = target: T1, intestinal BBM Na/phosphate co-transporter (Oryctolagus cuniculus, UniProt G1SIP4)
T1 sequence (G1SIP4 25-715): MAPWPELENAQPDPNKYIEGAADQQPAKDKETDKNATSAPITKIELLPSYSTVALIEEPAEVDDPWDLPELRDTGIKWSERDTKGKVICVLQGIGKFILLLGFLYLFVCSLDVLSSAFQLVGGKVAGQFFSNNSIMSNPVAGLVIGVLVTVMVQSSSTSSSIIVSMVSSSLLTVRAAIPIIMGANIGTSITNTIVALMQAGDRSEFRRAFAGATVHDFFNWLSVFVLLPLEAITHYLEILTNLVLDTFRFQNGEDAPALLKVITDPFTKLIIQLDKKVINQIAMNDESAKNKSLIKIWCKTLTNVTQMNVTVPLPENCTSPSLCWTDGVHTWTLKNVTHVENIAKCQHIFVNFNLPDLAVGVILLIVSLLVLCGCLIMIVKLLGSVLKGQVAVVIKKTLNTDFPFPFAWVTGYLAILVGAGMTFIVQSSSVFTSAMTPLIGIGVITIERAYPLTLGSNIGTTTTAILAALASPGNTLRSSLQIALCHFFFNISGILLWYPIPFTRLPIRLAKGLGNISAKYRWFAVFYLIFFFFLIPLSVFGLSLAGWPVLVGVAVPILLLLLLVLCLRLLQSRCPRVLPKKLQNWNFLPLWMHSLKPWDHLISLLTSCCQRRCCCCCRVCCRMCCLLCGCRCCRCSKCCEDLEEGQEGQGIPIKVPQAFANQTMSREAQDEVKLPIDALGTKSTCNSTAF

[4] = target: intestinal brush border membrane alkaline phosphatase (Oryctolagus cuniculus, UniProt G1SXE4); experiment: biochemical; assay type: biochemical
[5] = target: T2, intestinal Na/phosphate co-transporter (Oryctolagus cuniculus, UniProt G1SIP4); experiment: Na-dependent [32P]phosphate uptake by rabbit intestinal brush border membrane (BBM) vesicles; settings: for type of inhibition of Na-dependent phosphate uptake: Dixon plot, with respect to phosphate
T2 sequence (G1SIP4 1-715): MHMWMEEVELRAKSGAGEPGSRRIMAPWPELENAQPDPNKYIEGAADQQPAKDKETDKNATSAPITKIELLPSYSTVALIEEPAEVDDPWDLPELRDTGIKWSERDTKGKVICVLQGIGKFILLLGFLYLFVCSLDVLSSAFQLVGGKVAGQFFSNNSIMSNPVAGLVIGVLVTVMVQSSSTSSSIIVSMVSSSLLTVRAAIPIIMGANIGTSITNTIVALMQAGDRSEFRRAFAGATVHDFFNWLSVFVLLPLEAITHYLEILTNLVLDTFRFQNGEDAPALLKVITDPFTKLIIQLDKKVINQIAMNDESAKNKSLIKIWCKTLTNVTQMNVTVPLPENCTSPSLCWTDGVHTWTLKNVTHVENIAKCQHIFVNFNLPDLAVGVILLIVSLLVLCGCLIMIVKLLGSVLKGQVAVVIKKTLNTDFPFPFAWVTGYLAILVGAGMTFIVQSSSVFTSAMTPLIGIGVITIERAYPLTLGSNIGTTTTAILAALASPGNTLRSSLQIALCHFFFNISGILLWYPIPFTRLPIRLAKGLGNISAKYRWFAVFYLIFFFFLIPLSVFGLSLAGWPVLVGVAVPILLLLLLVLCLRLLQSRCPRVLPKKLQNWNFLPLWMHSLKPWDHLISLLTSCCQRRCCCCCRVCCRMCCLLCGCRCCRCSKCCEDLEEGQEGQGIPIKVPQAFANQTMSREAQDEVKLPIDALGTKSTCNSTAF

[6] = system: rats with normal renal function; experiment: Effect of 2′-PP on rat survival, serum phosphate and serum calcium (Table 1 study); assay type: in vivo; settings: for Serum calcium / Serum phosphate: seven days after beginning treatment
Description: (§1) Ten rats with normal renal function were treated with varied amounts of [^3H]2′-PP by gavage for seven days. The 2′-PP was given once/day in a solution containing 270 mM sucrose and 10 mM Tris-Cl pH 7.4. Blood was withdrawn 1, 4, and 7 days from the start of the treatment and analyzed for serum phosphate and serum calcium, with the results shown in Table 1. A second, one-week trial was performed adding 2′-PP to the drinking water. Blood was withdrawn at 1, 4 and 7 days and assayed for calcium and phosphate. Dietary phosphorus was increased from 0.9% to 5% for one week, and the experiment repeated at the elevated dietary phosphorus with 2′-PP added to the drinking water for an additional two weeks. The amount of radioactivity in the urine and stool as examined. After two weeks, the animals were sacrificed, and the kidney and liver were examined for radioactivity.
Serum calcium levels (2.1 mM±0.18 mM) remained unchanged (7% fluctuation compared to 3% error in duplicate determinations) on both the normal and high phosphate diets irrespective of 2′-PP concentration. […] Serum phosphate was 2.5±0.2 mM prior to administration of 2′-PP (n=12). […] Rats on the high phosphate diet required higher 2′-PP concentrations to achieve the same results, however, similar decreases in serum phosphate were seen. […] At 10 μM 2′-PP, rats on the high phosphorus diet had serum phosphate levels below that seen in untreated rats on the normal phosphate diet.
The values given are measured seven days after beginning treatment with the indicated 2′-PP concentration. Results are from duplicate rats and assayed in triplicate.

[7] = Radioactivity in urine, stool, kidney and liver after [3H]2′-PP; assay type: in vivo, rat
Description: as §1
After 4 weeks on 2′-PP, the rats were sacrificed and their kidneys and liver examined for radioactivity. […] A crude estimate of 2′-PP turnover time was calculated from the amount of radioactivity in the stool after administration of [^3H]2′-PP was discontinued; and the 2′-PP half-life was estimated as 12±1 hr.

[8] = system: intestinal Na/phosphate co-transporter; experiment: [3H]AZPP photolabeling of Ca-BBM protein, papain digest and immunoprecipitation; assay type: binding
Description: Ca-BBM protein (1.8 nmoles 2′-PP binding sites as determined from 9 pmoles [^3H]2′-PP bound/mg protein) was labeled with [^3H]AZPP (1 minute incubation with 10 μM [^3H]AZPP at 4° C. in 150 mM NaCl and 10 mM sodium borate pH 7, followed by a 1 minute exposure to visible light). Following centrifugation to remove excess label, BBM protein was digested with papain as previously described in Peerce, B. E. (1995) Biochim. Biophys. Acta. 1239: 11-21 and Peerce, B. E.; Cedilote, M. and Clarke, R. D. (1995) Biochim. Biophys. Acta. 1239: 1-10, and resolved into membrane-retained and soluble peptides. 95% of the radioactivity was in the membrane-retained fraction. SDS-solubilization of the membrane-retained fraction released 85% of the radioactivity.
A polyclonal antibody to the intestinal Na/phosphate co-transporter (KL9.2) developed in the laboratory was used to immunoprecipitate CHAPS-solubilized [^3H]AZPP-labeled Ca-BBM protein. The complex was electrophoresed by SDS-PAGE and stained with Coomassie blue, according to the method of Laemmli, U.K 1970 Nature (Lond.) 227: 680-685. A track was cut into 2 mm slices, and the slices counted for tritium. […] The residual 12%±2%, n=3, of the applied label appeared to be non-specifically associated with lipid (chloroform:methanol extracted).

[9] = 10 μM [3H]2′-PP in water for 2 weeks, then removed
[10] = High Phosphate Diet, [2′-PP] 1 μM
[11] = High Phosphate Diet, [2′-PP] 2 μM
[12] = High Phosphate Diet, [2′-PP] 5 μM
[13] = High Phosphate Diet, [2′-PP] 10 μM
[14] = High Phosphate Diet, [2′-PP] 25 μM
[15] = Normal Phosphate Diet, [2′-PP] 1 μM
[16] = Normal Phosphate Diet, [2′-PP] 2 μM
[17] = Normal Phosphate Diet, [2′-PP] 5 μM
[18] = Normal Phosphate Diet, [2′-PP] 10 μM
[19] = Normal Phosphate Diet, [2′-PP] 25 μM
[20] = four weeks of treatment with 2′-PP

intestinal brush border membrane alkaline phosphatase, sequence (G1SXE4 25-504): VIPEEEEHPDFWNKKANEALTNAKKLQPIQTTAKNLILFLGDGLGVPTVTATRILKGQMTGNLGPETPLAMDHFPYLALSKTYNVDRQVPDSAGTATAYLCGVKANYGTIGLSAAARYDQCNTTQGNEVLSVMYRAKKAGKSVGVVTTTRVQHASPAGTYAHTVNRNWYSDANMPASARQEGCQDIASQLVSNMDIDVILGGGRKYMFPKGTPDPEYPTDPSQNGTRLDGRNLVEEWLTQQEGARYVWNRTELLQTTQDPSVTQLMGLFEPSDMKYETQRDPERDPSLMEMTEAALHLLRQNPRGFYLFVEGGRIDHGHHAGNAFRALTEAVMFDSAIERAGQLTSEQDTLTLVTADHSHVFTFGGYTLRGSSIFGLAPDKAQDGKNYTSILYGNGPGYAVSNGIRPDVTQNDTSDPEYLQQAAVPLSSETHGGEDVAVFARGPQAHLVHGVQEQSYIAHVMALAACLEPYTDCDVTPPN

O=C(CCc1ccc(O)cc1)c1c(O)cc(O)cc1OP(=O)(O)O
water consumption relative to normal ([1]; 5 μM or higher concentrations of 2′-PP, first 4 days of the study): 2-4 times | Serum calcium ([1]; 2′-PP concentrations of 5 μM and higher): significant decrease | Serum phosphate ([1]; after 2 weeks at 25 μM 2′-PP in drinking water): 1.2 mM | Serum phosphate ([1]; after 2 weeks on 1 μM 2′-PP in drinking water): 1.8 mM | apparent half-time to return to normal serum phosphate levels [2, 9]: approximately 3 days | time for serum phosphate to return to normal (control) level after withdrawal [2, 9]: five | inhibition at 10 µM ([2]; Rattus norvegicus, 10 μM 2′-PP administered daily, read-out: inhibition of the Na/phosphate co-transporter in vivo): ~100% | 2′-PP bound (kinetic analysis of trace B) [3]: 8.5 pmoles 2′-PP bound/mg protein | 2′-PP bound at infinite osmotic strength [3]: 8±0.6 pmoles of 2′-PP bound/mg protein | 2′-PP bound in the absence of Na [3]: 0.12±0.005 pmoles 2′-PP bound/mg protein | Hill coefficient nH of Na effect on 2′-PP binding [3]: 1.9±0.25 | [3H]2′-PP binding sites [3]: 9 pmoles [^3H]2′-PP bound/mg protein | apparent K0.5 for Na (Na concentration at 50% 2′-PP bound) [3]: 23 ± 3 mM | transport by the Na/phosphate co-transporter [3]: not transported | substrate of alkaline / apical membrane phosphatase [4]: substrate of alkaline phosphatase | type of inhibition of alkaline phosphatase [4]: competitive inhibitor | inhibition at 50 µM ([4]; read-out: inhibition of alkaline phosphatase): 33% | Ki [5]: 0.59 ± 0.08 µM | type of inhibition of Na-dependent phosphate uptake [5]: competitive with respect to phosphate | change in apparent k0.5 for inhibition of Na-dependent [32P]phosphate uptake after pre-incubation with Ca-BBM ([5]; incubations of up to 10 minutes at 23° C.): no measurable change | Serum calcium [6, 10]: 2.1 ± 0.1 mM | Serum phosphate [6, 10]: 4.4 ± 0.2 mM | Serum calcium [6, 11]: 2.1 ± 0.1 mM | Serum phosphate [6, 11]: 3.3 ± 0.2 mM | Serum calcium [6, 12]: 2.1 ± 0.1 mM | Serum phosphate [6, 12]: 2.6 ± 0.1 mM | Serum calcium [6, 13]: 2.1 ± 0.1 mM | Serum phosphate [6, 13]: 2.0 ± 0.04 mM | Serum calcium [6, 14]: 2.0 ± 0.1 mM | Serum phosphate [6, 14]: 1.8 ± 0.08 mM | Serum calcium [6, 15]: 2.1 ± 0.08 mM | Serum phosphate [6, 15]: 2.5 ± 0.1 mM | Serum calcium [6, 16]: 2.1 ± 0.1 mM | Serum phosphate [6, 16]: 2.2 mM and 2.2 ± 0.1 mM | Serum calcium [6, 17]: 2.1 ± 0.05 mM | Serum phosphate [6, 17]: 2.0 ± 0.07 mM | Serum calcium [6, 18]: 2.0 ± 0.1 mM | Serum phosphate [6, 18]: 1.8 ± 0.1 mM | Serum calcium [6, 19]: 2.1 ± 0.1 mM | Serum phosphate [6, 19]: 1.4 mM and 1.4 ± 0.1 mM | change in weight [6, 20]: nor did they suffer any measurable change in weight | rat survival [6, 20]: none of the rats died | Serum calcium levels (remained unchanged) ([6]; normal and high phosphate diets, irrespective of 2′-PP concentration): 2.1 mM | radioactivity in the urine, kidney, or the liver ([7]; after 4 weeks on [3H]2′-PP): No measurable radioactivity | permeation across the intestinal membrane ([7]; at the concentrations tested): relatively impermeant | 2′-PP half-life (turnover time) ([7]; crude estimate from radioactivity in the stool after [3H]2′-PP was discontinued): 12 ± 1 h

[N-]=[N+]=Nc1cc(CCC(=O)c2c(O)cc(OP(=O)(O)O)cc2O)ccc1O [AZPP, 1-[2,6-dihydroxy-4-(phosphonooxy)phenyl]-3-(3-azido-4-hydroxyphenyl)-1-propanone]
labeled species on urea gel electrophoresis after papain digestion of SDS soluble protein [8]: single 24 kDa polypeptide | radioactivity released by SDS-solubilization of the membrane-retained fraction [8]: 85% | radioactivity in the membrane-retained fraction after papain digestion ([8]; 10 μM [3H]AZPP, 4° C., 150 mM NaCl, visible light): 95% | labeled species on SDS-PAGE after immunoprecipitation with antibody KL9.2 ([8]; CHAPS-solubilized labeled Ca-BBM protein): single 120-kDa polypeptide | residual applied label non-specifically associated with lipid ([8]; chloroform:methanol extracted, n=3): 12%

O=C(CCc1ccc(O)cc1)c1c(O)cc(NP(=O)(O)O)cc1O [NHPP]
type of inhibition of Na-dependent phosphate uptake [5]: competitive inhibitor | Ki ([5]; read-out: K1 (Kl) for inhibition of Na-dependent phosphate uptake, from replot of Dixon plot slope, phosphate 50, 100, 250 μM, n=3): 6.9 ± 1 µM

Phosphate [reference compound]
IC50 ([3]; read-out: concentration inhibiting 50% of Na-dependent 2′-PP bound to Ca-BBM): 105 ± 15 µM
